Structures can show the parent of a compound that is named as a salt. Where two headings read alike, the source gives them in different places.

Broadly, the Ki is a measure of affinity in units of concentration, obtained from inhibition or displacement.

Assay [1] has as its target T1, human 5-HT3 serotonin receptors (Homo sapiens, UniProt P46098).
T1 sequence (P46098 24-478): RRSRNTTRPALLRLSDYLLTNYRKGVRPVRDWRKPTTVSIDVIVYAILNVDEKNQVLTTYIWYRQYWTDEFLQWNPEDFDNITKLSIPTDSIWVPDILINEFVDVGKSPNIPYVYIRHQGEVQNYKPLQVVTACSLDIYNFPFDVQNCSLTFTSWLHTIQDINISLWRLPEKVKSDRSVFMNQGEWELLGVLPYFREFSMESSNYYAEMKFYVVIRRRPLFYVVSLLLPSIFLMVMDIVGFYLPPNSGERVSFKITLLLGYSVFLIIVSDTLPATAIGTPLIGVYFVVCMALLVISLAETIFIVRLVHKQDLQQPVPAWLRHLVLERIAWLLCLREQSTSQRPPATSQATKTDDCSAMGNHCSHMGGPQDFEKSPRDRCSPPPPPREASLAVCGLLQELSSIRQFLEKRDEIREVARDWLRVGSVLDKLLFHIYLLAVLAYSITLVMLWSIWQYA
The assay can be described thus: biochemical. In kind it is binding.

Another assay concerns the target human α7 nAChR (Homo sapiens, UniProt P36544). The conditions noted are these: reference compound in the above described human α7 nAChR binding assay provided by Cerep.
Assay [2] addresses recombinantly expressed human α7-nAChR (Homo sapiens, UniProt P36544). The settings on record: literature value, [125I] α-BTX radioligand, read-out: Ki (lit); cited from earlier work.
The mark [3] stands for this setting: CHO cell membranes expressing human 5-HT3 receptors, [3H]BRL 43694, 120 min at room temperature, read-out: h-5HT3 Ki.

recombinantly expressed human α7-nAChR, sequence (P36544 23-502): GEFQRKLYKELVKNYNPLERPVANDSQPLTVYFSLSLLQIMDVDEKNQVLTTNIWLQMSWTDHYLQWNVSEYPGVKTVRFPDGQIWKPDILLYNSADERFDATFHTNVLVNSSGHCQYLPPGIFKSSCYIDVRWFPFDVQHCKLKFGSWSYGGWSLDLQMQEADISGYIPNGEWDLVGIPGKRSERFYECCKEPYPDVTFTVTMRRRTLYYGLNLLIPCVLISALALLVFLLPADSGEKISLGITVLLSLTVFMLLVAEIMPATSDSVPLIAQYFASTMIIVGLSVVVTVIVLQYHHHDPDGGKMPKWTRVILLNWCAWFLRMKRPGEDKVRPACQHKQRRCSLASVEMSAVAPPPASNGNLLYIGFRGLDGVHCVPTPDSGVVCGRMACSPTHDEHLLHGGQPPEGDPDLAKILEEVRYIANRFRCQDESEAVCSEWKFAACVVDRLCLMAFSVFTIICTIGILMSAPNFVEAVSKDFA
human α7 nAChR, sequence (P36544 23-502): as above

`Fc1cc2cc(NC3=NO[C@@]4(C3)CN3CCC4CC3)ncc2cc1Cl` [(R)-82, (R)—N-(7-chloro-6-fluoroisoquinolin-3-yl)-4H-1′-azaspiro[isoxazole-5,3′-bicyclo[2.2.2]octan]-3-amine hydrochloride]: the Ki in assay [1] (setting [3]) was more than 10 µM.
Still for that read-out and setting: to `FC(F)(F)c1ccc2cnc(NC3=NO[C@@]4(C3)CN3CCC4CC3)cc2c1` [(R)-83, (R)—N-(6-(trifluoromethypisoquinolin-3-yl)-4H-1′-azaspiro[isoxazole-5,3′-bicyclo[2.2.2]octan]-3-amine hydrochloride] belongs more than 10 µM.
In the case of `Cc1cn2ccc(NC3=NO[C@@]4(C3)CN3CCC4CC3)cc2n1` [(R)-96, (R)-N-(2-methylimidazo[1,2-a]pyridin-7-yl)-4H-1′-azaspiro[isoxazole-5,3′-bicyclo[2.2.2]octan]-3-amine hydrochloride], the Ki in assay [1] is more than 10 µM.
The molecule `Cc1cc2cnc(NC3=NO[C@@]4(C3)CN3CCC4CC3)cc2s1` [(R)-99, (R)-N-(2-methylthieno[3,2-c]pyridin-6-yl)spiro[4H-isoxazole-5,3′-quinuclidine]-3-amine hydrochloride] had a Ki in assay [1] of more than 10 µM.
Regarding `Cc1cc2cnc(NC3=NO[C@@]4(C3)CN3CCC4CC3)cc2o1` [(R)-100, (R)-N-(2-methylfuro[3,2-c]pyridin-6-yl)spiro[4H-isoxazole-5,3′-quinuclidine]-3-amine hydrochloride], the inhibition constant Ki in assay [1] was more than 10 µM.
Take `Clc1cccc2nc(NC3=NO[C@]4(C3)CN3CCC4CC3)sc12` [(S)-11, (S)—N-(7-chlorobenzo[d]thiazol-2-yl)-4H-1′-azaspiro[isoxazole-5,3′-bicyclo[2.2.2]octan]-3-amine]: the Ki in assay [1] (setting [3]) was 0.13 µM.
Regarding `Cc1ccc(-c2ccc(OC3CN4CCC3CC4)cn2)cc1` (centres unmarked) [AQW051], the figures for the Ki (on human α7 nAChR; in assay [2]) were 0.255 µM and 0.028 µM, respectively.
